The results in this text go back to patent US20070293530A1, “SULFAMIDE AND SULFAMATE DERIVATIVES AS HISTONE DEACETYLASE INHIBITORS” (METHYLGENE INC., priority 2006, published 2007).

The target of this experiment is HDAC enzyme. Nature of the experiment: Inhibition of Histone Deacetylase Enzymatic Activity (Assay Examples 1 and 2). Format: biochemical. The conditions noted are these: HDAC isoform not specified; fluorogenic Boc-Lys(Ac)-AMC or Boc-Lys(trifluoroacetyl)-AMC substrate. As to the method:
The following protocol is used to assay the compounds of the invention. In the assay, the buffer used is 25 mM HEPES, pH 8.0, 137 mM NaCl, 2.7 mM KCl, 1 mM MgCl2 and the subtrate is Boc-Lys(Ac)-AMC in a 50 mM stock solution in DMSO. The enzyme stock solution is 4.08 μg/mL in buffer.
The compounds are pre-incubated (2 μl in DMSO diluted to 13 μl in buffer for transfer to assay plate) with enzyme (20 μl of 4.08 μg/ml) for 10 minutes at room temperature (35 μl pre-incubation volume). The mixture is pre-incubated for 5 minutes at room temperature. The reaction is started by bringing the temperature to 37° C. and adding 16 μl substrate. Total reaction volume is 50 μl. The reaction is stopped after 20 minutes by addition of 50 μl developer, prepared as directed by Biomol (Fluor-de-Lys developer, Cat. #KI-105). A plate is incubated in the dark for 10 minutes at room temperature before reading (λEx=360 nm, λEm=470 nm, Cutoff filter at 435 nm).
Alternatively, HDAC inhibitory activity was determined using the following assay.
A 30 mM stock of Boc-Lys(trifluoroacetyl)-AMC substrate is prepared in DMSO. 2 μL of test compound in DMSO is diluted to 50 μL in buffer (25 mM HEPES, pH 8.0, 137 mM NaCl, 2.7 mM KCl, 1 mM MgCl2, 0.1% BSA) and pre-incubated with HDAC enzyme (30 μL of a final enzyme concentration of 0.1-0.2 nM) for 10 minutes at room temperature. Reaction is started by adding 18 μL Boc-Lys(trifluoroacetyl)-AMC substrate and incubating at 37° C. for 20-30 minutes. The reaction is stopped by adding 50 μL trypsin (1 mg/mL) and a known HDAC inhibitor (such as LAQ-824). The plate is then incubated in the dark for 20 minutes at room temperature and read with Ex=360 nm, Em=470 nm, cutoff filter at 435 nm.
In the table, A≦0.2 μM; 0.2 μM<B≦0.5 μM; […]; and 1 μM<D≦6 μM.

SMILES strings stand for the structures. pIC50: −log10 of the molar value. Some results are limits rather than exact numbers.

`NS(=O)(=O)NCCCC[C@H](NC(=O)OCc1ccccc1)C(=O)Nc1cccc2cccnc12` [Compound 55, (S)-benzyl 1-oxo-1-(quinolin-8-ylamino)-6-(sulfamoyl-amino)-hexan-2-ylcarbamate] had a pIC50 of at least 6.70.

A word on the pIC50: it is the IC50 on a negative log10 scale, so that one unit is a factor of ten.
